Source: US20230115534A1 (ARKUDA THERAPEUTICS, priority 2019, published 2023)
Where a name gives a salt, the structure may show the parent alone.

Test system: progranulin (PGRN)
Assay: progranulin induction cellular assay (PGRN assay), ELISA-based readout
Conditions: PGRN assay as described: mouse primary microglia, primary cortical neurons and BV-2 cell lines; secreted mouse PGRN in medium by ELISA; cell type for Table B not specified
Procedure: Cellular Assays: To measure the efficacy of compounds, a progranulin induction cellular assay in mouse primary microglia (pMG), primary cortical neurons, and BV-2 cell lines is used. BV-2 cells are split the day before plating into a 96 well plate format at approximately 80%. Cells should be plated the day before and allowed for 1 hour attachment period and for 16 hour incubation. Levels of progranulin secreted into the cell culture medium or retained in the cell lysate can be quantified using an ELISA-based readout and measurement of secreted mouse PGRN in the medium was assessed by the methodology published by Ghidoni et al. 2012. Standard ELISA kits to measure PGRN are available from vendors such as Adipogen, R&D, and Biovendor.
Table B below presents the results of a PGRN assay as described above.

Structure (SMILES) | EC50 [nM]
NC12CC(CC(=O)N3CCc4ccccc4C3c3ccc(F)cc3)(C1)C2 [Compound 4056, (S)-2-(3-aminobicyclo[1.1.1]pentan-1-yl)-1-(1-(4-fluorophenyl)-3,4-dihydroisoquinolin-2(1H)-yl)ethan-1-one] | 1440
CNC12CC(CC(=O)N3CCc4ccccc4C3c3ccc(F)cc3)(C1)C2 [Compound 4057, (S)-1-(1-(4-fluorophenyl)-3,4-dihydroisoquinolin-2(1H)-yl)-2-(3-(methylamino)bicyclo[1.1.1]pentan-1-yl)ethan-1-one] | 1750
CNC12CC(CCC(=O)N3CCc4ccccc4C3c3ccc(F)cc3)(C1)C2 [Compound 4058, (S)-1-(1-(4-fluorophenyl)-3,4-dihydroisoquinolin-2(1H)-yl)-3-(3-(methylamino)bicyclo[1.1.1]pentan-1-yl)propan-1-one hydrochloride] | 900
NC[C@H]1CC[C@@H]1OC(=O)N1CCc2ccccc2[C@@H]1c1ccc(F)cc1 [Compound 4064] | 968
NC[C@H]1CC[C@H]1OC(=O)N1CCc2ccccc2[C@@H]1c1ccc(F)cc1 [Compound 4065] | 821
CN[C@H]1C[C@@H](NC(=O)N2CCc3ccccc3[C@@H]2c2ccc(F)cc2)C1 [Compound 4066] | 610
CN[C@H]1C[C@@H](N(C)C(=O)N2CCc3ccccc3[C@@H]2c2ccc(F)cc2)C1 [Compound 4067] | 913
CN(C)[C@H]1C[C@@H](NC(=O)N2CCc3ccccc3[C@@H]2c2ccc(F)cc2)C1 [Compound 4069] | 672
NC[C@@H]1CC[C@H]1OC(=O)N1CCc2ccccc2[C@@H]1c1ccc(F)cc1 [Compound 4123] | > 2100
CN(C)[C@H]1C[C@@H](CC(=O)N2CCc3ccccc3[C@@H]2c2ccc(F)cc2)C1 [Compound 4126] | 571
CN(C)[C@H]1C[C@@H](OC(=O)N2CCc3ccccc3[C@@H]2c2ccc(F)cc2)C1 [Compound 4127] | 773
CCN[C@H]1C[C@H](OC(=O)N2CCc3ccccc3[C@@H]2c2ccc(F)cc2)C1 [Compound 4130] | 740
N[C@@H]1CC[C@@H]1COC(=O)N1CCc2ccccc2[C@@H]1c1ccc(F)cc1 [Compound 4132, ((1S,2R)-2-aminocyclobutyl)methyl (S)-1-(4-fluorophenyl)-3,4-dihydroisoquinoline-2(1H)-carboxylate] | 1010
N[C@H]1CC[C@H]1COC(=O)N1CCc2ccccc2[C@@H]1c1ccc(F)cc1 [Compound 4133, ((1R,2S)-2-aminocyclobutyl)methyl (S)-1-(4-fluorophenyl)-3,4-dihydroisoquinoline-2(1H)-carboxylate] | 864
N[C@H]1CC[C@@H]1COC(=O)N1CCc2ccccc2[C@@H]1c1ccc(F)cc1 [Compound 4134, ((1S,2S)-2-aminocyclobutyl)methyl (S)-1-(4-fluorophenyl)-3,4-dihydroisoquinoline-2(1H)-carboxylate] | 1290
NC12CC(NC(=O)N3CCc4ccccc4[C@@H]3c3ccccc3)(C1)C2 [Compound 4135, (S)—N-(3-aminobicyclo[1.1.1]pentan-1-yl)-1-phenyl-3,4-dihydroisoquinoline-2(1H)-carboxamide] | 1610
NC12CC(OC(=O)N3CCc4ccccc4[C@@H]3c3ccccc3)(C1)C2 [Compound 4136, 3-aminobicyclo[1.1.1]pentan-1-yl (S)-1-phenyl-3,4-dihydroisoquinoline-2(1H)-carboxylate] | 604
N[C@H]1CC[C@H](C(=O)N2CCc3ccccc3[C@@H]2c2ccc(F)cc2)CC1 [Compound 4144] | 3120

Compounds with a lower EC50, results first:

EC50 [nM] | Structure (SMILES)
365 | N[C@H]1C[C@@H](CC(=O)N2CCc3ccccc3[C@@H]2c2ccc(F)cc2)C1 [Compound 4121]
359 | N[C@@H]1CC[C@@H]1CNC(=O)N1CCc2ccccc2[C@@H]1c1ccc(F)cc1 [Compound 4131]
347 | NC[C@@H]1CC[C@@H]1OC(=O)N1CCc2ccccc2[C@@H]1c1ccc(F)cc1 [Compound 4124]
319 | CN(C)[C@H]1C[C@H](OC(=O)N2CCc3ccccc3[C@@H]2c2ccc(F)cc2)C1 [Compound 4128]
318 | CCN[C@H]1C[C@@H](OC(=O)N2CCc3ccccc3[C@@H]2c2ccc(F)cc2)C1 [Compound 4129]
290 | CN(C)[C@H]1C[C@@H](NC(=O)N2CCc3ccccc3[C@@H]2c2ccc(F)cc2)C1 [Compound 4068]
280 | CN(C)[C@H]1C[C@H](CC(=O)N2CCc3ccccc3[C@@H]2c2ccc(F)cc2)C1 [Compound 4125]
245 | NC[C@H]1C[C@H](C(=O)N2CCc3ccccc3[C@@H]2c2ccc(F)cc2)C1 [Compound 4149, (trans-3-(aminomethyl)cyclobutyl)((S)-1-(4-fluorophenyl)-3,4-dihydroisoquinolin-2(1H)-yl)methanone]
245 | N[C@]1(CO)C[C@@H](C(=O)N2CCc3ccccc3[C@@H]2c2ccc(F)cc2)C1 [Compound 4152, (trans-3-amino-3-(hydroxymethyl)cyclobutyl)((S)-1-(4-fluorophenyl)-3,4-dihydroisoquinolin-2(1H)-yl)methanone]
208 | N[C@H]1C[C@H](CC(=O)N2CCc3ccccc3[C@@H]2c2ccc(F)cc2)C1 [Compound 4122]
191 | O=C(O[C@H]1C[C@@H](NCCO)C1)N1CCc2ccccc2[C@@H]1c1ccc(F)cc1 [Compound 4145, cis-3-((2-hydroxyethyl)amino)cyclobutyl (S)-1-(4-fluorophenyl)-3,4-dihydroisoquinoline-2(1H)-carboxylate]
160 | CN(C(=O)N1CCc2ccccc2[C@@H]1c1ccc(F)cc1)[C@H]1C[C@H](N)C1 [Compound 4055, (S)—N-((trans)-3-aminocyclobutyl)-1-(4-fluorophenyl)-N-methyl-3,4-dihydroisoquinoline-2(1H)-carboxamide]
131 | N[C@H]1C[C@@H](OC(=O)N2CCc3ccccc3[C@@H]2c2ccc(F)cc2)C1 [Compound 4155, cis-3-aminocyclobutyl (S)-1-(4-fluorophenyl)-3,4-dihydroisoquinoline-2(1H)-carboxylate]
120 | C[C@]1(NC(=O)N2CCc3ccccc3[C@@H]2c2ccc(F)cc2)C[C@@H](N)C1 [Compound 4054, (S)—N-((cis)-3-amino-1-methylcyclobutyl)-1-(4-fluorophenyl)-3,4-dihydroisoquinoline-2(1H)-carboxamide]
112 | NC[C@]1(O)C[C@H](C(=O)N2CCc3ccccc3[C@@H]2c2ccc(F)cc2)C1 [Compound 4154, (trans-3-(aminomethyl)-3-hydroxycyclobutyl)((S)-1-(4-fluorophenyl)-3,4-dihydroisoquinolin-2(1H)-yl)methanone]
99 | N[C@H]1C[C@H](C(=O)N2CCc3ccccc3[C@@H]2c2ccc(F)cc2)C1 [Compound 4147, (trans-3-aminocyclobutyl)((S)-1-(4-fluorophenyl)-3,4-dihydroisoquinolin-2(1H)-yl)methanone]
92 | N[C@H]1C[C@@H](C(=O)N2CCc3ccccc3[C@@H]2c2ccc(F)cc2)C1 [Compound 4148, (cis-3-aminocyclobutyl)((S)-1-(4-fluorophenyl)-3,4-dihydroisoquinolin-2(1H)-yl)methanone]
89 | O=C(O[C@H]1C[C@H](NCCO)C1)N1CCc2ccccc2[C@@H]1c1ccc(F)cc1 [Compound 4146, trans-3-((2-hydroxyethyl)amino)cyclobutyl (S)-1-(4-fluorophenyl)-3,4-dihydroisoquinoline-2(1H)-carboxylate]
84 | N[C@H]1CC[C@@H](C(=O)N2CCc3ccccc3[C@@H]2c2ccc(F)cc2)CC1 [Compound 4143, cis-(S)-(4-aminocyclohexyl)(1-(4-fluorophenyl)-3,4-dihydroisoquinolin-2(1H)-yl)methanone]
83 | N[C@]1(CO)C[C@H](C(=O)N2CCc3ccccc3[C@@H]2c2ccc(F)cc2)C1 [Compound 4151, (cis-3-amino-3-(hydroxymethyl)cyclobutyl)((S)-1-(4-fluorophenyl)-3,4-dihydroisoquinolin-2(1H)-yl)methanone]
79 | NC[C@H]1C[C@@H](C(=O)N2CCc3ccccc3[C@@H]2c2ccc(F)cc2)C1 [Compound 4150, (cis-3-(aminomethyl)cyclobutyl)((S)-1-(4-fluorophenyl)-3,4-dihydroisoquinolin-2(1H)-yl)methanone]
31 | C[C@]1(NC(=O)N2CCc3ccccc3[C@@H]2c2ccc(F)cc2)C[C@H](N)C1 [Compound 4053, (S)—N-((trans)-3-amino-1-methylcyclobutyl)-1-(4-fluorophenyl)-3,4-dihydroisoquinoline-2(1H)-carboxamide]
